Assay [1] deals with T1, Glycine receptor (alpha-1/beta) (Homo sapiens, UniProt P23415+P48167). Briefly: Antagonist activity at human glycine receptor subunit alpha-1beta expressed in HEK293 cells assessed as reduction in glycine-induced currents by whole-cell patch-clamp assay. Format: cell-based. For orientation: In patch-clamp work, channel activity is measured electrically.
The target of assay [2] is T2, Glycine receptor subunit alpha-1 (Homo sapiens, UniProt P23415).
T2 sequence (P23415 whole entry): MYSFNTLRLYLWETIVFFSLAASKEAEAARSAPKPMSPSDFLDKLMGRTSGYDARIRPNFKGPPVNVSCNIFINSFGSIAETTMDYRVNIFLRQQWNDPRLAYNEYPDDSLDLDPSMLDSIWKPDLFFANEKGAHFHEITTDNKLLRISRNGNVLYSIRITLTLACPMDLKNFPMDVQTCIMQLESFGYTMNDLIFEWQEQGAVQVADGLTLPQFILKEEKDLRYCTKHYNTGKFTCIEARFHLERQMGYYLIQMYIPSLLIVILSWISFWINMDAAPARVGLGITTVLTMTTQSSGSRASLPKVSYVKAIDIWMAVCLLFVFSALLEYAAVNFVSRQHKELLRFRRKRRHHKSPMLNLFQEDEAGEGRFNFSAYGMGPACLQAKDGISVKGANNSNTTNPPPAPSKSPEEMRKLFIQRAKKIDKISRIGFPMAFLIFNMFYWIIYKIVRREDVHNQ
Briefly: Antagonist activity at human glycine receptor subunit alpha-1 expressed in human tsA201 cells assessed as reduction in glycine-induced response incubated for 30 mins by fluorescence-based FLIPR membrane potential blue assay. Format: cell-based. Particulars: for IC50: read-out: IC50.

In assay [3] the target is T1, Glycine receptor (alpha-1/beta). The assay can be described thus: Antagonist activity at human glycine receptor subunit alpha-1beta expressed in human tsA201 cells assessed as reduction in glycine-induced response incubated for 30 mins by fluorescence-based FLIPR membrane potential blue assay. Format: cell-based. Particulars: read-out: IC50.
Assay [4] deals with T2, Glycine receptor subunit alpha-1. Briefly: Antagonist activity at human glycine receptor subunit alpha-1 expressed in HEK293 cells assessed as reduction in glycine-induced currents by whole-cell patch-clamp assay. Format: cell-based.
Assay [5] has the same target. Briefly: Antagonist activity at human glycine receptor subunit alpha-1 assessed as inhibition of glycine-induced current measured at the onset of compound application by patch-clamp assay.
The target is the same in assay [6]. Briefly: Antagonist activity at human glycine receptor subunit alpha-1 assessed as inhibition of glycine-induced current measured at the later state of compound application by patch-clamp assay.
Assay [7] shares this target. Briefly: Displacement of [3H]strychnine from human glycine receptor subunit alpha-1 expressed in HEK293 cell membranes preincubated for 30 mins followed by [3H]strychnine addition and measured after 30 mins by liquid scintillation counting method. More on the design: species or system Membrane. For orientation: Loss of bound radioactivity is the signal in a displacement assay; it reports binding, not function.

T1 sequence (P48167 whole entry, one chain of several): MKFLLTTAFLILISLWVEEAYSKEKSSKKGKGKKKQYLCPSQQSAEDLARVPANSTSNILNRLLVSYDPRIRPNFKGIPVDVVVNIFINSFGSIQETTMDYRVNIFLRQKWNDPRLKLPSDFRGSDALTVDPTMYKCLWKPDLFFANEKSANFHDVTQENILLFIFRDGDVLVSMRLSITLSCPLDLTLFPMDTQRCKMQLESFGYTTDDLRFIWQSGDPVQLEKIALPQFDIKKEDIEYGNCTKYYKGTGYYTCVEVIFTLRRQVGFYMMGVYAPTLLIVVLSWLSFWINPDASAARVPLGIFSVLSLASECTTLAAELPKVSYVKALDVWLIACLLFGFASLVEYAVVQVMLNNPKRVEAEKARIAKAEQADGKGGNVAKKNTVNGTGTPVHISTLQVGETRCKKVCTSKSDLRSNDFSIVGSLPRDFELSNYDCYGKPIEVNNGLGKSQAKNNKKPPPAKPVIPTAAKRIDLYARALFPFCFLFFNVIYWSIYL

What is called IC50 is the concentration that gives 50% inhibition. In the case of `O=C(CCCCCCCCC(=O)Nc1ccc2c(c1)[C@@]13CCN4CC5=CCO[C@H]6CC(=O)N2[C@H]1[C@H]6[C@H]5C[C@H]43)Nc1ccc2c(c1)[C@@]13CCN4CC5=CCO[C@H]6CC(=O)N2[C@H]1[C@H]6[C@H]5C[C@H]43`, the IC50 was determined as 1900 nM in assay [1], 7200 nM in assay [2], 10000 nM in assay [3] and 1500 nM in assay [4].
The corresponding values for `O=C(CCCCCCCCCCC(=O)Nc1ccc2c(c1)[C@@]13CCN4CC5=CCO[C@H]6CC(=O)N2[C@H]1[C@H]6[C@H]5C[C@H]43)Nc1ccc2c(c1)[C@@]13CCN4CC5=CCO[C@H]6CC(=O)N2[C@H]1[C@H]6[C@H]5C[C@H]43` are 800 nM, 1100 nM, 1800 nM and 720 nM.
One may read the Ki as a measure of affinity in units of concentration, obtained from inhibition or displacement. Read a low Ki as higher affinity. Consider `O=C(CCOCCOCCOCCOCCOCCOCCOCCOCCOCCOCCOCCOCCC(=O)NCCCCCCCCCCC(=O)Nc1ccc2c(c1)[C@@]13CCN4CC5=CCO[C@H]6CC(=O)N2[C@H]1[C@H]6[C@H]5C[C@H]43)NCCCCCCCCCCC(=O)Nc1ccc2c(c1)[C@@]13CCN4CC5=CCO[C@H]6CC(=O)N2[C@H]1[C@H]6[C@H]5C[C@H]43`, for which the IC50 in assay [5] was found to be 3310 nM; in assay [6], 67 nM; in assay [2] it was 10000 nM; in assay [3], 3900 nM. Besides, in assay [7], the Ki came to 204 nM.
For the compound `O=C(CCCCCCC(=O)Nc1ccc2c(c1)[C@@]13CCN4CC5=CCO[C@H]6CC(=O)N2[C@H]1[C@H]6[C@H]5C[C@H]43)Nc1ccc2c(c1)[C@@]13CCN4CC5=CCO[C@H]6CC(=O)N2[C@H]1[C@H]6[C@H]5C[C@H]43`, the half-maximal inhibitory concentration (IC50) in assay [1] was 1300 nM; in assay [2], 6900 nM; in assay [3] it was 10000 nM; in assay [4] it was 1100 nM.
One may read the pIC50 as −log10 of the IC50, conventionally taken in molar units. For the compound `O=C1C[C@@H]2OCC=C3CN4CC[C@]56c7ccccc7N1[C@H]5[C@H]2[C@H]3C[C@H]46` [STRYCHNINE], the IC50 in assay [5] worked out at 134 nM; in assay [6] it was 27 nM; in assay [1], 60 nM; in assay [3] (tsa201), 510 nM; in assay [4] it was 50 nM. For the same compound, the Ki in assay [7] is 5 nM. Moreover, in assay [2] (tsa201), the pIC50 turned out to be 6.82.

These data come from ChEMBL document CHEMBL4819035, “C-2-Linked Dimeric Strychnine Analogues as Bivalent Ligands Targeting Glycine Receptors” (J Nat Prod, 2021).
